According to ChEMBL document CHEMBL1201862, “PubChem BioAssay data set” (2004):
The source made the active and inactive calls. For most assays here, no stated cut-off is given here; in the data, actives have a measured IC50 and inactives only a lower limit.

Assays:
Caspase-3 [1] = target: T1, Caspase-3 (Homo sapiens, UniProt P42574); type: functional
T1 sequence (P42574 whole entry): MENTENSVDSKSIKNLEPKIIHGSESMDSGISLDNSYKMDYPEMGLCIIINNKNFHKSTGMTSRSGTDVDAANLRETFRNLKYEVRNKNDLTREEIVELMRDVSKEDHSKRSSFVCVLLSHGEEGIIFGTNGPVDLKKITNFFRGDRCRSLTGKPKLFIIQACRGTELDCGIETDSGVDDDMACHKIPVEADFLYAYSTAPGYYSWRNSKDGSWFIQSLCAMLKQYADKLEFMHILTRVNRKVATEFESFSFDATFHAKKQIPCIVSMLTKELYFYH

[2] = target: T2, Sentrin-specific protease 7 (Homo sapiens, UniProt Q9BQF6); type: functional;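 further: Luminescence-based dose-response confirmation of ultra-high-throughput screening hits, measuring inhibition of SENP7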
T2 sequence (Q9BQF6 whole entry): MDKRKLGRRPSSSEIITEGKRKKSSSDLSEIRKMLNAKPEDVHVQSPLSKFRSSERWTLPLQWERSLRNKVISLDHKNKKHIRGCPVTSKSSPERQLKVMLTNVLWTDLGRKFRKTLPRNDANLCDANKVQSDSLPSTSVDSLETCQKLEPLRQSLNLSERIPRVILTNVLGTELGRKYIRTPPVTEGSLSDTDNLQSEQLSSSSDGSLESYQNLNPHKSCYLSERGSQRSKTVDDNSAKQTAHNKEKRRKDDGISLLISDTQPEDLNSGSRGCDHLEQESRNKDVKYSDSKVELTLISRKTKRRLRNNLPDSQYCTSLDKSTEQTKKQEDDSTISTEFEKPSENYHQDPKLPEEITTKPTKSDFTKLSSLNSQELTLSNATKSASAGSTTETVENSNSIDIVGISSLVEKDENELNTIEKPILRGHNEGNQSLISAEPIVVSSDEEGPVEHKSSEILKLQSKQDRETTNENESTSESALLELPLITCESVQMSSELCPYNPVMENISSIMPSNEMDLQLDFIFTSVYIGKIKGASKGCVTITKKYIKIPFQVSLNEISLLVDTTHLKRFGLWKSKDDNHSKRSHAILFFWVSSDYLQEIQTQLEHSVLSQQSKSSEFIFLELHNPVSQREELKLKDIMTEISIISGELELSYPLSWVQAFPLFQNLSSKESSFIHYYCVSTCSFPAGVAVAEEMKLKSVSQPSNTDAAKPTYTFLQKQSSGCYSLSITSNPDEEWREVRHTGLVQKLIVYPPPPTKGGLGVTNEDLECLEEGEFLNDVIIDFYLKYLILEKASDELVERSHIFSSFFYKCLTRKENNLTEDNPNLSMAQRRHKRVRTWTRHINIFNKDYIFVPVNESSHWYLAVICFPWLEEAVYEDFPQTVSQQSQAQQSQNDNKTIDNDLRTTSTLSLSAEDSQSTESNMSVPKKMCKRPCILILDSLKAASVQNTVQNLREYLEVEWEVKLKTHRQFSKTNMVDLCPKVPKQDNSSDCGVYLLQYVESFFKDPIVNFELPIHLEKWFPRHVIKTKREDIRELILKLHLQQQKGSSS

[3] = target: T3, Sentrin-specific protease 6 (Homo sapiens, UniProt Q9GZR1); type: functional
T3 sequence (Q9GZR1 whole entry): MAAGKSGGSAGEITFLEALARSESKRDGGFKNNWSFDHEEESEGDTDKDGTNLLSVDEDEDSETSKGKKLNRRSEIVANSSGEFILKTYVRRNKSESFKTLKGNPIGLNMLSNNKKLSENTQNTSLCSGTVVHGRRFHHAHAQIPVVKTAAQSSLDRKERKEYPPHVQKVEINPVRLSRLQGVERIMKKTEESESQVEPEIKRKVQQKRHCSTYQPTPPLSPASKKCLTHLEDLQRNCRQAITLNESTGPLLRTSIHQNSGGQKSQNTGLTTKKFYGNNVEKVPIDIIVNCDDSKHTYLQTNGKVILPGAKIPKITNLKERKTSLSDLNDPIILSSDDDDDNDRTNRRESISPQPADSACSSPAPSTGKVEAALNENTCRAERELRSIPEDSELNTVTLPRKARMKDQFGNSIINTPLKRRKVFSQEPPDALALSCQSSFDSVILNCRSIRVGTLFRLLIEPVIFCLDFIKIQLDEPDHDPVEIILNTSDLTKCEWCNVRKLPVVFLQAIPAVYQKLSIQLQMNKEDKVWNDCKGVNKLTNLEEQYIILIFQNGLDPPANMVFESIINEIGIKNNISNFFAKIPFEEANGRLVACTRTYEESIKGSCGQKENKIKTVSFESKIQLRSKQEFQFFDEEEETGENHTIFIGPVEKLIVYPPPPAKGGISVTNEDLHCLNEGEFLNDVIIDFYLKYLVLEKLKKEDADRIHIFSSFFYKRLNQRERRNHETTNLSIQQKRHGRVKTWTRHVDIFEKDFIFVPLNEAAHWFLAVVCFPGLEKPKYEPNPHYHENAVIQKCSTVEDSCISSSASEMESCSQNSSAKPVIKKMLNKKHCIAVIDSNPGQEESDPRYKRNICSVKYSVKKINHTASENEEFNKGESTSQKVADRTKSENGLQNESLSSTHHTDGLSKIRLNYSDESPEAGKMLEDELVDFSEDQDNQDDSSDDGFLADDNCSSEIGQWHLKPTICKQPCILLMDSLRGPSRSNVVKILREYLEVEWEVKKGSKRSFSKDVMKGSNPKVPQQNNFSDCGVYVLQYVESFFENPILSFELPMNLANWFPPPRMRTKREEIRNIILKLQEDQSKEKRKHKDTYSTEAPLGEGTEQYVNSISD

[4] = target: T4, Sentrin-specific protease 8 (Homo sapiens, UniProt Q96LD8); type: functional;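 further: luminescence read-out of SENP8 inhibition, dose-response confirmation following an ultra-high-throughput screen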
T4 sequence (Q96LD8 whole entry): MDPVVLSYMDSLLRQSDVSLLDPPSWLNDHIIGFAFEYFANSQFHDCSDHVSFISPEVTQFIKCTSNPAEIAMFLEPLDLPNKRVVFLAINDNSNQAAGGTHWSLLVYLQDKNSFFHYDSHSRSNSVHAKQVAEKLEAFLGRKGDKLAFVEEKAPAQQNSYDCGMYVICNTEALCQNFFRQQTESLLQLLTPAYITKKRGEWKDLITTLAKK

[5] = target: T4, Sentrin-specific protease 8; experiment: inhibition of human SENP8 cleavage activity – biochemical, luminescence, SAR follow-up (AID 504501); type: functional
Caspase-3 [6] = target: T1, Caspase-3; experiment: SAR Analysis of small molecule inhibitors of Sentrin-specific proteases (SENPs) using a Caspase-3 Selectivity assay. [Related pubchem assays (depositor defined):AID2540, AID2599, AID434973, AID489001]; type: functional
[7] = target: T3, Sentrin-specific protease 6; experiment: SAR Analysis of small molecule inhibitors of Sentrin-specific protease 6 (SENP6) using a Luminescent assay. [Related pubchem assays (depositor defined):AID2582, AID2599]; type: functional
[8] = target: T2, Sentrin-specific protease 7; experiment: inhibition of human SENP7 cleavage activity – biochemical, luminescence, SAR follow-up (AID 504497); type: functional
Cysteine protease ATG4B = target: T5, Cysteine protease ATG4B (Homo sapiens, UniProt Q9Y4P1); type: functional;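 further: Fluorescence-based dose-response confirmation assay measuring inhibition of ATG4B activity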
T5 sequence (Q9Y4P1 whole entry): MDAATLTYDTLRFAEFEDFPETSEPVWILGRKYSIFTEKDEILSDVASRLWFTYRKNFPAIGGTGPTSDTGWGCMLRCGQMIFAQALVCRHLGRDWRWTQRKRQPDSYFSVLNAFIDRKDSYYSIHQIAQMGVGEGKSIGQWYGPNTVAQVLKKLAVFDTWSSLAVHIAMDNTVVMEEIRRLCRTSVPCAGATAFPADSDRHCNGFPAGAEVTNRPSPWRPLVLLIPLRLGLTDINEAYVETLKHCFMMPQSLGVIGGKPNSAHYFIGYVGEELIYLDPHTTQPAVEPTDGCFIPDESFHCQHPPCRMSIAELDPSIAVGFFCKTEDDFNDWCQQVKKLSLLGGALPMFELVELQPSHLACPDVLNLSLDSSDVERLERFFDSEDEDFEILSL

Phospholipase A2 = Phospholipase A2 (Homo sapiens, UniProt P04054); type: functional;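 further: confirmatory dose-response counterscreen on phospholipase A2, testing hits that came from an ultra-high-throughput screen for ATG4B inhibitors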
Caspase-3 [9] = target: T1, Caspase-3; experiment: inhibition of recombinant caspase-3 activity – biochemical, luminescence, set 2, selectivity assay for SENP protease inhibitor project, SAR follow-up (AID 588599); type: functional
[10] = target: T4, Sentrin-specific protease 8; experiment: inhibition of sentrin protease 8 – biochemical, luminescence, set 2, SAR follow-up (AID 588601); type: functional
CHO = CHO cell viability loss, potency – luminescence, cytotoxicity control for TLR9-MyD88 binding inhibitor project, dose response (AID 588339); type: functional, cell-based, hamster; details: Cricetulus griseus;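 further: CHO cells stably coexpressing TLR9 and MyD88 fusions from primary screen; compound exposure lasted 48 hours before viability readout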
Beta Lactamase = Beta Lactamase (Pseudomonas aeruginosa, UniProt Q932Y6); experiment: BLA reporter interference, concentration series – BLA reporter cells, FRET fluorescence, artefact control for TLR9-MyD88 binding inhibitor project, dose response (AID 588341); type: cell-based;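 further: cell based assay in CHO-K1 cells stably expressing beta-lactamase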
Beta Lactamase, sequence (Q932Y6 whole entry): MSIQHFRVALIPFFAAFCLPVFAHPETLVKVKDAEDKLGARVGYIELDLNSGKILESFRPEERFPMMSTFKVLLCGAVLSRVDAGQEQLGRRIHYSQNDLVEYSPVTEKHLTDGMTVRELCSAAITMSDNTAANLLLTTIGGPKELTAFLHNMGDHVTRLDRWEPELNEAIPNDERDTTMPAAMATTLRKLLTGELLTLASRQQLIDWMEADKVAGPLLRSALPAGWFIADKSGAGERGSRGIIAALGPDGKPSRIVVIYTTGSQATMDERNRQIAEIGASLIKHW

Phospholipase A2, sequence (P04054 whole entry): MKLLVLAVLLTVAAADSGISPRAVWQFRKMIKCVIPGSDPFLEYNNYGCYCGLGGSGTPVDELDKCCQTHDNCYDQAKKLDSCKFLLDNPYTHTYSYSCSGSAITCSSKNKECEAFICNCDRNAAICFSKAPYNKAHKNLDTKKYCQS

O=C(Nc1ccc(Br)cc1)c1ccc2c(c1)OCO2
IC50 (Caspase-3 [1]): 22.1 µM (active) | IC50 [2]: 3.75 µM (active) | IC50 [3]: > 100 µM (inactive) | IC50 [4]: > 100 µM (inactive) | IC50 [5]: > 99 µM (inactive) | IC50 (Caspase-3 [6]): 8.29 µM (active) | IC50 [7]: > 99 µM (inactive) | IC50 [8]: 4.45 µM (active)

CC(C)c1ccc(NC2CCCN(C(=O)c3[nH]nc4c3CCC4)C2)cc1 (stereo unspecified)
IC50 (Cysteine protease ATG4B): 11.8 µM (active) | IC50 (Phospholipase A2): 5.99 µM (active)

Cc1ccc(C(=O)Nc2nc3ccc(Cl)cc3s2)o1
IC50 [5]: 3 µM (active) | IC50 (Caspase-3 [9]): 2.53 µM (active) | IC50 [10]: 1.65 µM (active) | IC50 (Caspase-3 [6]): 11 µM (active) | IC50 [7]: 25 µM (active)

Nc1ccccc1-c1noc(/C=C/c2ccccc2Cl)n1
IC50 [5]: > 99 µM (inactive) | IC50 (Caspase-3 [6]): > 99 µM (inactive) | IC50 [7]: > 99 µM (inactive) | IC50 [8]: 71.3 µM (active)

COc1ccc(/C=N/Nc2ccc([N+](=O)[O-])cc2)cc1O
IC50 (CHO): 45.1 µM (inactive) | IC50 (Beta Lactamase): 10.7 µM (inactive)
